Measured values: ChEMBL document CHEMBL1240344, “Phage-encoded combinatorial chemical libraries based on bicyclic peptides” (Nat Chem Biol, 2009)
Activity calls are given as the source filed them. No cut-off for these calls is given here. Starred links: 1 amine or outer side, 2 acyl side, 3 side chain; linkers in the order of their positions; H or OH if unused. Positions of bridges follow the written chain, without caps; N, C: chain ends. Residues, ends and D or L forms follow the SMILES beside them. TBMB = c1c(C[*:1])cc(C[*:3])cc1C[*:2]

Experiments:
Plasma kallikrein = Plasma kallikrein (Homo sapiens, UniProt P03952); experiment: Inhibition of human plasma kallikrein using Z-Phe-Arg-AMC substrate after 30 mins by spectrophotometric assay
Plasma kallikrein, sequence (P03952 20-390 limits assumed): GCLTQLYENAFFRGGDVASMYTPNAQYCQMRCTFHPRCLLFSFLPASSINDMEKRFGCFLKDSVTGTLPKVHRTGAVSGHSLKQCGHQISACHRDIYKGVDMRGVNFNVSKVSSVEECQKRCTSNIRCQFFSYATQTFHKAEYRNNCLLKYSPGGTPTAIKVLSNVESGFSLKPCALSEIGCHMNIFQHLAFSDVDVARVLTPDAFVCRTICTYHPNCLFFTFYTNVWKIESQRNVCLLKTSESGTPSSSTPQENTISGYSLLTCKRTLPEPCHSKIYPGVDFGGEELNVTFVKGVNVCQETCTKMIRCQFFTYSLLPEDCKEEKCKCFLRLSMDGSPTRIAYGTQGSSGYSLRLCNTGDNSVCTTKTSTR
Plasma kallikrein, sequence (P03952 391-638 limits assumed): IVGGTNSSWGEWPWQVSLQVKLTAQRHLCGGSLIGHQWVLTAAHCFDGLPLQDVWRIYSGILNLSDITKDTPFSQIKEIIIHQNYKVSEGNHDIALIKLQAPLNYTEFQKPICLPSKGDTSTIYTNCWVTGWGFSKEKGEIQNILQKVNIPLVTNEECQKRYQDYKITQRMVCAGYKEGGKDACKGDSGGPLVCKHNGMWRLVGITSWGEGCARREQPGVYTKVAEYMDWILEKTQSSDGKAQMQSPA

[1] = target: Coagulation factor XI (Homo sapiens) (UniProt P03951); experiment: Inhibition of human factor 11a at 10 uM using Z-Phe-Arg-AMC substrate after 30 mins by spectrophotometric assay
Coagulation factor XI (Homo sapiens), sequence (P03951 19-387 limits assumed): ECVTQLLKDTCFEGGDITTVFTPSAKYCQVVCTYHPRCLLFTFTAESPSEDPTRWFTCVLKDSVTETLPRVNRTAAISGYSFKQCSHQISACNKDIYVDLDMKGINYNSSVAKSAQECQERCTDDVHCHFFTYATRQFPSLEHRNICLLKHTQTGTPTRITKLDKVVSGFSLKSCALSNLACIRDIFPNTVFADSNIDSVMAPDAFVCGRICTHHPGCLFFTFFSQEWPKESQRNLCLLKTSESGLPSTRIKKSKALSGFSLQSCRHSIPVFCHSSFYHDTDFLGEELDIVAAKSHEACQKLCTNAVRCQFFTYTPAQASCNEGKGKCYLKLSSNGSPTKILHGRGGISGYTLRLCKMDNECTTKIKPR
Coagulation factor XI (Homo sapiens), sequence (P03951 388-625 limits assumed): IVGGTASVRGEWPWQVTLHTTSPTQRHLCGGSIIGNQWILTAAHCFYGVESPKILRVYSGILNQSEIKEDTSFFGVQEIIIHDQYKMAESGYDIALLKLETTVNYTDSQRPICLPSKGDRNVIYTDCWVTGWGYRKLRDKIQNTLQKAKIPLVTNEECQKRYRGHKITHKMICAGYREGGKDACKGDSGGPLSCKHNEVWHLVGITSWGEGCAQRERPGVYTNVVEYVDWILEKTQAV

[2] = target: Prothrombin (Homo sapiens) (UniProt P00734); experiment: Inhibition of human thrombin at 10 uM using Boc-Phe-Ser-Arg-AMC substrate after 30 mins by spectrophotometric assay
[3] = target: Plasma kallikrein (Mus musculus) (UniProt P26262); experiment: Inhibition of mouse plasma kallikrein at 10 uM using Z-Phe-Arg-AMC substrate after 30 mins by spectrophotometric assay; assay type: cell-free
Plasma kallikrein (Mus musculus), sequence (P26262 20-390 limits assumed): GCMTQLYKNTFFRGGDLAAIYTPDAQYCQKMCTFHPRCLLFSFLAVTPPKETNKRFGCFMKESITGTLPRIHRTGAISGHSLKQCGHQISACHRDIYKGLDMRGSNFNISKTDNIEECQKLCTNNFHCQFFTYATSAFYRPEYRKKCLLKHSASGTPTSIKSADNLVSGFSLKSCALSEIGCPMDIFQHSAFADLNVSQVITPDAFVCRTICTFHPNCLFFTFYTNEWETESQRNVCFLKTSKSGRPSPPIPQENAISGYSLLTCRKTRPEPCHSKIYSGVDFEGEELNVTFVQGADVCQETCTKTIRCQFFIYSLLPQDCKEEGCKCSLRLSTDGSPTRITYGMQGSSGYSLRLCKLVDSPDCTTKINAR
Plasma kallikrein (Mus musculus), sequence (P26262 391-638 limits assumed): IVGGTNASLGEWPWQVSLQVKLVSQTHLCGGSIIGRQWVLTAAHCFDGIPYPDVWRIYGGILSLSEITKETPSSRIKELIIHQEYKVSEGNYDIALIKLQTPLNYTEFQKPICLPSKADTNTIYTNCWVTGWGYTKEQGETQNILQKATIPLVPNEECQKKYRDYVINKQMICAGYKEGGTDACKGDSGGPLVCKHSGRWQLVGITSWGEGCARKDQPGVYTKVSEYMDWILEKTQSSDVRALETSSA

SMILES	IC50 (Plasma kallikrein)	inhibition [1]	inhibition [2]	inhibition [3]
CC[C@H](C)[C@@H]1NC(=O)[C@H](CCC(=O)O)NC(=O)[C@H]([C@@H](C)CC)NC(=O)[C@@H]2CCCN2C(=O)[C@@H]2CSCc3cc(cc(c3)CSC[C@@H](C(=O)NCC(N)=O)NC(=O)[C@@H]3CCCN3C(=O)[C@H](Cc3ccccc3)NC1=O)CSC[C@H](NC(=O)[C@H](C)N)C(=O)N[C@@H](CO)C(=O)N[C@@H]([C@H](C)O)C(=O)N[C@@H](CCC(=O)O)C(=O)N[C@@H](CCCNC(=N)N)C(=O)N[C@@H](CCCNC(=N)N)C(=O)N[C@@H](Cc1ccc(O)cc1)C(=O)N2	0.033 µM	–	–	–
CC(C)[C@H](NC(=O)[C@H](CCCN=C(N)N)NC(=O)[C@H](CS)NC(=O)[C@H](CCCN=C(N)N)NC(=O)CNC(=O)[C@H](CCC(=O)O)NC(=O)CNC(=O)[C@@H](NC(=O)CNC(=O)[C@H](CS)NC(=O)[C@H](C)N)[C@@H](C)O)C(=O)N[C@@H](CC(N)=O)C(=O)N[C@@H](Cc1c[nH]c2ccccc12)C(=O)N[C@H](C(=O)N1CCC[C@H]1C(=O)N[C@@H](CS)C(=O)NCC(N)=O)[C@@H](C)O	> 10 µM	–	–	–
CC(C)[C@@H]1NC(=O)[C@H](CCCNC(=N)N)NC(=O)[C@@H]2CSCc3cc(cc(c3)CSC[C@@H](C(=O)NCC(N)=O)NC(=O)[C@@H]3CCCN3C(=O)[C@H]([C@H](C)O)NC(=O)[C@H](Cc3c[nH]c4ccccc34)NC(=O)[C@H](CC(N)=O)NC1=O)CSC[C@H](NC(=O)[C@H](C)N)C(=O)NCC(=O)N[C@@H]([C@H](C)O)C(=O)NCC(=O)N[C@@H](CCC(=O)O)C(=O)NCC(=O)N[C@@H](CCCNC(=N)N)C(=O)N2	0.0391 µM	–	–	–
CC(C)[C@H](NC(=O)[C@H](CCCNC(=N)N)NC(=O)[C@H](CS)NC(=O)[C@H](CCCNC(=N)N)NC(=O)CNC(=O)[C@H](CCC(=O)O)NC(=O)CNC(=O)[C@@H](NC(=O)CNC(=O)[C@H](CS)NC(=O)[C@@H](C)N)[C@H](C)O)C(=O)N[C@@H](CC(N)=O)C(=O)N[C@@H](Cc1c[nH]c2ccccc12)C(=O)N[C@H](C(=O)N1CCC[C@H]1C(=O)N[C@@H](CS)C(=O)NCC(N)=O)[C@@H](C)O	–	inactive	inactive	inactive
CSCC[C@H](NC(=O)[C@H](CC(C)C)NC(=O)[C@H](CC(=O)O)NC(=O)[C@H](CCC(=O)O)NC(=O)[C@H](Cc1ccc(O)cc1)NC(=O)[C@H](CS)NC(=O)[C@H](C)NC(=O)[C@@H](NC(=O)[C@H](CCCN=C(N)N)NC(=O)[C@H](Cc1c[nH]c2ccccc12)NC(=O)[C@@H]1CCCN1C(=O)[C@H](C)NC(=O)[C@H](CS)NC(=O)[C@H](C)N)[C@@H](C)O)C(=O)N[C@@H](Cc1c[nH]c2ccccc12)C(=O)N[C@@H](CS)C(=O)NCC(N)=O (H-ACAPWRTACYEDLMWCG-NH2)	5.71 µM	–	–	–
CSCC[C@H](NC(=O)[C@H](CC(C)C)NC(=O)[C@H](CC(=O)O)NC(=O)[C@H](CCC(=O)O)NC(=O)[C@H](Cc1ccc(O)cc1)NC(=O)[C@H](CS)NC(=O)[C@H](C)NC(=O)[C@@H](NC(=O)[C@H](CCCNC(=N)N)NC(=O)[C@H](Cc1c[nH]c2ccccc12)NC(=O)[C@@H]1CCCN1C(=O)[C@H](C)NC(=O)[C@H](CS)NC(=O)[C@H](C)N)[C@@H](C)O)C(=O)N[C@@H](Cc1c[nH]c2ccccc12)C(=O)N[C@@H](CS)C(=O)NCC(N)=O (H-ACAPWRTACYEDLMWCG-NH2)	–	inactive	inactive	inactive
CSCC[C@@H]1NC(=O)[C@H](CO)NC(=O)[C@H](Cc2c[nH]c3ccccc23)NC(=O)[C@@H]2CCCN2C(=O)[C@@H]2CSCc3cc(cc(c3)CSC[C@H](NC(=O)[C@H](C)N)C(=O)N[C@@H](CC(=O)O)C(=O)N[C@@H](CO)C(=O)N[C@@H](CCCNC(=N)N)C(=O)N[C@@H](Cc3ccccc3)C(=O)N[C@@H](CCCNC(=N)N)C(=O)N[C@@H](CC(N)=O)C(=O)N2)CSC[C@@H](C(=O)NCC(N)=O)NC(=O)CNC(=O)[C@H](CO)NC1=O (H-ACDSRFRNCPWSMSGCG-NH2; linker 2-9-16 via TBMB)	1.5 µM	–	–	–
CC[C@H](C)[C@@H]1NC(=O)[C@H](CC(N)=O)NC(=O)[C@H](CC(N)=O)NC(=O)[C@H](C(C)C)NC(=O)[C@H](CCCNC(=N)N)NC(=O)[C@@H]2CSCc3cc(cc(c3)CSC[C@@H](C(=O)NCC(N)=O)NC(=O)[C@H](CO)NC1=O)CSC[C@H](NC(=O)[C@H](C)N)C(=O)NCC(=O)NCC(=O)N[C@@H](CC(N)=O)C(=O)N[C@@H](CO)C(=O)N[C@@H](CC(=O)O)C(=O)N[C@@H](CCCNC(=N)N)C(=O)N2 (H-ACGGNSDRCRVNNISCG-NH2; linker 2-9-16 via TBMB)	2 µM	–	–	–
CC(C)C[C@H](NC(=O)[C@H](C)NC(=O)[C@H](CCC(=O)O)NC(=O)[C@H](CC(=O)O)NC(=O)[C@H](C)NC(=O)[C@@H]1CCCN1C(=O)[C@H](CS)NC(=O)[C@H](CC(N)=O)NC(=O)[C@H](CCCNC(=N)N)NC(=O)[C@H](Cc1ccccc1)NC(=O)[C@H](CCCNC(=N)N)NC(=O)[C@H](CC(=O)O)NC(=O)[C@H](CO)NC(=O)[C@H](CS)NC(=O)[C@H](C)N)C(=O)N[C@@H](CS)C(=O)NCC(N)=O (H-ACSDRFRNCPADEALCG-NH2)	> 10 µM	inactive	inactive	inactive
CC(C)C[C@H](NC(=O)[C@@H]1CCCN1C(=O)[C@H](CS)NC(=O)[C@H](CC(N)=O)NC(=O)[C@H](CCCNC(=N)N)NC(=O)[C@H](Cc1ccccc1)NC(=O)[C@H](CCCNC(=N)N)NC(=O)[C@H](CC(=O)O)NC(=O)[C@H](CO)NC(=O)[C@H](CS)NC(=O)[C@H](C)N)C(=O)N[C@@H](Cc1c[nH]c2ccccc12)C(=O)N[C@@H](CO)C(=O)NCC(=O)N[C@H](C(=O)N[C@@H](CS)C(=O)NCC(N)=O)[C@@H](C)O (H-ACSDRFRNCPLWSGTCG-NH2)	> 10 µM	inactive	inactive	inactive
CC(C)C[C@@H]1NC(=O)[C@H](C)NC(=O)[C@H](CCC(=O)O)NC(=O)[C@H](CC(=O)O)NC(=O)[C@H](C(C)C)NC(=O)[C@@H]2CCCN2C(=O)[C@@H]2CSCc3cc(cc(c3)CSC[C@@H](C(=O)NCC(N)=O)NC1=O)CSC[C@H](NC(=O)[C@H](C)N)C(=O)N[C@@H](CO)C(=O)N[C@@H](CC(=O)O)C(=O)N[C@@H](CCCNC(=N)N)C(=O)N[C@@H](Cc1ccccc1)C(=O)N[C@@H](CCCNC(=N)N)C(=O)N[C@@H](CC(N)=O)C(=O)N2 (H-ACSDRFRNCPVDEALCG-NH2; linker 2-9-16 via TBMB)	0.02 µM	–	–	–
CC(C)C[C@@H]1NC(=O)[C@H](Cc2c[nH]c3ccccc23)NC(=O)[C@H](CCC(=O)O)NC(=O)[C@H](CC(=O)O)NC(=O)[C@H](C(C)C)NC(=O)[C@@H]2CCCN2C(=O)[C@@H]2CSCc3cc(cc(c3)CSC[C@@H](C(=O)NCC(N)=O)NC1=O)CSC[C@H](NC(=O)[C@H](C)N)C(=O)N[C@@H](CO)C(=O)N[C@@H](CC(=O)O)C(=O)N[C@@H](CCCNC(=N)N)C(=O)N[C@@H](Cc1ccccc1)C(=O)N[C@@H](CCCNC(=N)N)C(=O)N[C@@H](CC(N)=O)C(=O)N2 (H-ACSDRFRNCPVDEWLCG-NH2; linker 2-9-16 via TBMB)	0.03 µM	–	–	–
CC(C)[C@@H]1NC(=O)[C@@H]2CCCN2C(=O)[C@@H]2CSCc3cc(cc(c3)CSC[C@@H](C(=O)NCC(N)=O)NC(=O)[C@H](C)NC(=O)[C@H](CO)NC(=O)[C@H](CCC(=O)O)NC(=O)[C@H](CO)NC1=O)CSC[C@H](NC(=O)[C@H](C)N)C(=O)N[C@@H](CO)C(=O)N[C@@H](CC(=O)O)C(=O)N[C@@H](CCCNC(=N)N)C(=O)N[C@@H](Cc1ccccc1)C(=O)N[C@@H](CCCNC(=N)N)C(=O)N[C@@H](CC(N)=O)C(=O)N2 (H-ACSDRFRNCPVSESACG-NH2; linker 2-9-16 via TBMB)	0.05 µM	–	–	–
CC(C)C[C@@H]1NC(=O)[C@H]([C@@H](C)O)NC(=O)[C@H](Cc2ccc(O)cc2)NC(=O)[C@@H]2CCCN2C(=O)[C@@H]2CSCc3cc(cc(c3)CSC[C@@H](C(=O)NCC(N)=O)NC(=O)[C@H](CC(=O)O)NC(=O)[C@H](Cc3cnc[nH]3)NC1=O)CSC[C@H](NC(=O)[C@H](C)N)C(=O)N[C@@H](CO)C(=O)N[C@@H](CC(=O)O)C(=O)N[C@@H](CCCNC(=N)N)C(=O)N[C@@H](Cc1ccccc1)C(=O)N[C@@H](CCCNC(=N)N)C(=O)N[C@@H](CC(N)=O)C(=O)N2 (H-ACSDRFRNCPYTLHDCG-NH2; linker 2-9-16 via TBMB)	0.03 µM	–	–	–
CC(C)[C@@H]1NC(=O)[C@H](CCCNC(=N)N)NC(=O)[C@@H]2CSCc3cc(cc(c3)CSC[C@@H](C(=O)NCC(N)=O)NC(=O)[C@H](CCCCN)NC(=O)CNC(=O)[C@H](Cc3ccccc3)NC(=O)[C@H](CC(N)=O)NC1=O)CSC[C@H](NC(=O)[C@H](C)N)C(=O)N[C@@H](Cc1c[nH]c3ccccc13)C(=O)N[C@@H](CCC(N)=O)C(=O)N[C@@H](C(C)C)C(=O)N[C@@H](CCC(N)=O)C(=O)N[C@@H](C(C)C)C(=O)N[C@@H](CC(N)=O)C(=O)N2 (H-ACWQVQVNCRVNFGKCG-NH2; linker 2-9-16 via TBMB)	0.8 µM	–	–	–
CC(C)C[C@@H]1NC(=O)[C@@H]2CCCN2C(=O)[C@@H]2CSCc3cc(cc(c3)CSC[C@@H](C(=O)NCC(N)=O)NC(=O)[C@H](C(C)O)NC(=O)CNC(=O)[C@H](CO)NC(=O)[C@H](Cc3c[nH]c4ccccc34)NC1=O)CSC[C@H](NC(=O)[C@H](C)N)C(=O)N[C@@H](CO)C(=O)N[C@@H](CC(=O)O)C(=O)N[C@@H](CCCNC(=N)N)C(=O)N[C@@H](Cc1ccccc1)C(=O)N[C@@H](CCCNC(=N)N)C(=O)N[C@@H](CC(N)=O)C(=O)N2 (single isomer, unassigned)	0.0286 µM	–	–	–
CC(C)[C@@H]1NC(=O)[C@@H](NC(=O)[C@H](C)N)CSCc2cc3cc(c2)CSC[C@@H](C(=O)NCC(N)=O)NC(=O)[C@H](C(C)O)NC(=O)[C@H](C(C)C)NC(=O)[C@H](Cc2c[nH]c4ccccc24)NC(=O)[C@H](CC(N)=O)NC(=O)[C@H](C(C)C)NC(=O)[C@H](CCCNC(=N)N)NC(=O)[C@H](CSC3)NC(=O)[C@H](Cc2ccc(O)cc2)NC(=O)[C@H](CC(N)=O)NC(=O)[C@H](Cc2cnc[nH]2)NC1=O (single isomer, unassigned)	1.8 µM	–	–	–
